Source: ChEMBL document CHEMBL4340571, “Investigation of flexibility of neuraminidase 150-loop using tamiflu derivatives in influenza A viruses H1N1 and H5N1” (Bioorg Med Chem, 2019)

Key:
[1] = Inhibition of Influenza A virus (A/California/07/2009(H1N1)) Neuraminidase N1 at pH 7.4 by DIANA assay
[2] = Selectivity index, ratio of Ki for inhibition of Influenza A virus (A/California/07/2009(H1N1)) Neuraminidase N1 by DIANA assay to Ki for inhibition of influenza A virus chicken/Nakorn- Patom/Thailand/CU-K2-2004 Neuraminidase N1 by DIANA assay
[3] = Inhibition of Influenza A virus (A/California/07/2009(H1N1)) Neuraminidase N1 at pH 6.15 using 4-MUNANA substrate incubated for 20 mins by fluorometric assay

| Compound | Ki [1] [µM] | Ratio Ki [2] | Ki [3] [µM] |
| --- | --- | --- | --- |
| CCC(CC)O[C@@H]1C=C(C(=O)O)C[C@H](n2cc(CNc3ccccc3C(N)=O)nn2)[C@H]1NC(C)=O | 13 | 2 to 4 |  |
| CCC(CC)O[C@@H]1C=C(C(=O)O)C[C@H](n2cc(CN(C)c3ccc(OC)cc3)nn2)[C@H]1NC(C)=O | 19 | 2 to 4 |  |
| CCC(CC)O[C@@H]1C=C(C(=O)O)C[C@H](n2cc(-c3cccs3)nn2)[C@H]1NC(C)=O | 20 | 2 to 4 |  |
| CCC(CC)O[C@@H]1C=C(C(=O)O)C[C@H](n2cc(CNc3ccccc3)nn2)[C@H]1NC(C)=O | 19 | 2 to 4 |  |
| CCC(CC)O[C@@H]1C=C(C(=O)O)C[C@H](NCc2cn(CCN3CCS(=O)(=O)CC3)nn2)[C@H]1NC(C)=O | 12 |  |  |
| CCC(CC)O[C@@H]1C=C(C(=O)O)C[C@H](n2cc(COCC(C)(CO)CO)nn2)[C@H]1NC(C)=O | 180 | 2 to 4 |  |
| CCC(CC)O[C@@H]1C=C(C(=O)O)C[C@H](N=[N+]=[N-])[C@H]1NC(C)=O |  |  | 0.91 |
| CCOC(=O)C1=C[C@@H](OC(CC)CC)[C@H](NC(C)=O)[C@@H](N)C1 [OSELTAMIVIR PHOSPHATE] | 2 |  |  |
| CCC(CC)O[C@@H]1C=C(C(=O)O)C[C@H](n2cc(CNc3ccc(C(N)=O)c(C(F)(F)F)c3)nn2)[C@H]1NC(C)=O | 14 | 2 to 4 |  |
| CCC(CC)O[C@@H]1C=C(C(=O)O)C[C@H](N)[C@H]1NC(C)=O [OSELTAMIVIR CARBOXYLATE] | 0.031 |  | 0.024 |
| CCC(CC)O[C@@H]1C=C(C(=O)O)C[C@H](NCc2cn(CC(C)(CO)CO)nn2)[C@H]1NC(C)=O | 0.89 |  |  |
| CCC(CC)O[C@@H]1C=C(C(=O)O)C[C@H](n2cc(-c3ccsc3)nn2)[C@H]1NC(C)=O | 16 | 2 to 4 |  |
| CCC(CC)O[C@@H]1C=C(C(=O)O)C[C@H](n2cc(C[C@H](N)C(=O)O)nn2)[C@H]1NC(C)=O | 64 | 2 to 4 |  |
| CCC(CC)O[C@@H]1C=C(C(=O)O)C[C@H](NCc2cn(CC(=O)N(C)C)nn2)[C@H]1NC(C)=O | 5.9 |  |  |
| CCC(CC)O[C@@H]1C=C(C(=O)O)C[C@H](NCc2cn(CC(=O)NC)nn2)[C@H]1NC(C)=O | 1.2 |  | 0.87 |
| CCC(CC)O[C@@H]1C=C(C(=O)O)C[C@H](n2cc(CNc3cc(F)ccc3OC)nn2)[C@H]1NC(C)=O | 22 | 2 to 4 |  |
| CCC(CC)O[C@@H]1C=C(C(=O)O)C[C@H](n2cc(CNc3ccc(NC(C)=O)cc3)nn2)[C@H]1NC(C)=O | 9.1 | 2 to 4 |  |
| CCC(CC)O[C@@H]1C=C(C(=O)O)C[C@H](n2cc(C[C@@]3(C(=O)O)CCCN3)nn2)[C@H]1NC(C)=O | 98 | 2 to 4 |  |
| CCC(CC)O[C@H]1CC(C(=O)O)=C[C@@H](n2cc(CN3CCS(=O)(=O)CC3)nn2)[C@@H]1NC(C)=O | 340 | 2 to 4 |  |
| CCC(CC)O[C@@H]1C=C(C(=O)O)C[C@H](n2cc(CO)nn2)[C@H]1NC(C)=O | 12 | 2 to 4 | 0.47 |
| CCC(CC)O[C@@H]1C=C(C(=O)O)C[C@H](NCc2cn(CC(=O)O)nn2)[C@H]1NC(C)=O | 2.8 |  |  |
| CCC(CC)O[C@@H]1C=C(C(=O)O)C[C@H](NCc2cn(CCO)nn2)[C@H]1NC(C)=O | 0.75 |  | 0.65 |
| CCC(CC)O[C@@H]1C=C(C(=O)O)C[C@H](n2cc(CNc3cccc(C(F)(F)F)c3)nn2)[C@H]1NC(C)=O | 4.2 | 2 to 4 | 0.47 |
